Laboratory results published in patent US7858611B2, “Neurogenesis by modulating angiotensin” (BrainCells Inc., priority 2006, dated 2010).
Where two headings read alike, the source gives them in different places.

What was measured:
[1] = test system: human neural stem cells (hNSCs); test: Neuronal differentiation of human neural stem cells (TUJ-1 antibody staining); format: cell-based; conditions: for EC50: Homo sapiens, Neural stem cell, read-out: EC50 for neuronal differentiation; for effect on neuronal differentiation: dose response
From the text: (§1) Mitogen-free test media with a positive control for neuronal differentiation was used along with basal media without growth factors as a negative control.
as §1, §1, §1, §1
(§2) Human neural stem cells (hNSCs) were isolated and grown in monolayer culture, plated, treated with varying concentrations of benazepril (test compound), and stained with TUJ-1 antibody, as described above. Mitogen-free test media with a positive control for neuronal differentiation was used along with basal media without growth factors as a negative control.
as §2, with “trandolapril” for “benazepril”, “described in” for “described”
as §2, with “candesartan” for “benazepril”, “described in” for “described”
as §2, with “telmisartan” for “benazepril”, “described in” for “described”
as §2, with “ibudilast and/or captopril” for “benazepril”, “compounds),” for “compound),”
as §2, with “enoximone and/or captopril” for “benazepril”, “compounds),” for “compound),”
as §2, with “ibudilast and/or candesartan” for “benazepril”, “compounds),” for “compound),”
as §2, with “baclofen and/or captopril” for “benazepril”, “compounds),” for “compound),”
Human neural stem cells (hNSCs) were isolated and grown in monolayer culture, plated, treated with varying concentrations of donepezil and/or captopril (test compounds), and stained with TUJ-1 antibody, as described above.

human mGlu2 receptors = human mGlu2 receptors (Homo sapiens, UniProt Q14416); conditions: in vitro; low nanomolar range; read-out: EC50 against human mGlu2 receptors; cited from earlier work
Chain of human mGlu2 receptors (Q14416 19-872): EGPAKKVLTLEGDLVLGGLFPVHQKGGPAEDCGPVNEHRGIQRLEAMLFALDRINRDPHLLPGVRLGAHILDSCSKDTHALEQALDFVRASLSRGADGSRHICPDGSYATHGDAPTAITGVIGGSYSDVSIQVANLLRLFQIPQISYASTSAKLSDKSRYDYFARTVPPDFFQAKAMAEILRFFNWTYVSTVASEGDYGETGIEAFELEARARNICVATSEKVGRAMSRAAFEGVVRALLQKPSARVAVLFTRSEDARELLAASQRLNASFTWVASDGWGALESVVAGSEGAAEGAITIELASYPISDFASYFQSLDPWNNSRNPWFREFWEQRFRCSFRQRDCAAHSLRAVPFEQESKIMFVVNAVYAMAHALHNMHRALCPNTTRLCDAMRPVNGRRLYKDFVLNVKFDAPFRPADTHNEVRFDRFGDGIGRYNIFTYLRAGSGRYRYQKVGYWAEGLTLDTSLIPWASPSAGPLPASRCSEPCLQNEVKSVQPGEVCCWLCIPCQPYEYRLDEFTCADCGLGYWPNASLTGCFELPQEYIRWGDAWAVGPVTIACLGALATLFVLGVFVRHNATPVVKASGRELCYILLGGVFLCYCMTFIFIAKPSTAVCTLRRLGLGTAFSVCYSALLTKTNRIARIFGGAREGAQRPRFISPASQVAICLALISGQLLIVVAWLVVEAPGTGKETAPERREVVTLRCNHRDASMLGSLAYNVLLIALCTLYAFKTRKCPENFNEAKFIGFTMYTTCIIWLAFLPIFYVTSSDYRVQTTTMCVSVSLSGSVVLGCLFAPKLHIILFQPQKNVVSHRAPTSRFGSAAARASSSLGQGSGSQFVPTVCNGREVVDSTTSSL

human mGlu3 receptors = human mGlu3 receptors (Homo sapiens, UniProt Q14832); conditions: in vitro; low nanomolar range; read-out: EC50 against human mGlu3 receptors; cited from earlier work
Chain of human mGlu3 receptors (Q14832 23-879): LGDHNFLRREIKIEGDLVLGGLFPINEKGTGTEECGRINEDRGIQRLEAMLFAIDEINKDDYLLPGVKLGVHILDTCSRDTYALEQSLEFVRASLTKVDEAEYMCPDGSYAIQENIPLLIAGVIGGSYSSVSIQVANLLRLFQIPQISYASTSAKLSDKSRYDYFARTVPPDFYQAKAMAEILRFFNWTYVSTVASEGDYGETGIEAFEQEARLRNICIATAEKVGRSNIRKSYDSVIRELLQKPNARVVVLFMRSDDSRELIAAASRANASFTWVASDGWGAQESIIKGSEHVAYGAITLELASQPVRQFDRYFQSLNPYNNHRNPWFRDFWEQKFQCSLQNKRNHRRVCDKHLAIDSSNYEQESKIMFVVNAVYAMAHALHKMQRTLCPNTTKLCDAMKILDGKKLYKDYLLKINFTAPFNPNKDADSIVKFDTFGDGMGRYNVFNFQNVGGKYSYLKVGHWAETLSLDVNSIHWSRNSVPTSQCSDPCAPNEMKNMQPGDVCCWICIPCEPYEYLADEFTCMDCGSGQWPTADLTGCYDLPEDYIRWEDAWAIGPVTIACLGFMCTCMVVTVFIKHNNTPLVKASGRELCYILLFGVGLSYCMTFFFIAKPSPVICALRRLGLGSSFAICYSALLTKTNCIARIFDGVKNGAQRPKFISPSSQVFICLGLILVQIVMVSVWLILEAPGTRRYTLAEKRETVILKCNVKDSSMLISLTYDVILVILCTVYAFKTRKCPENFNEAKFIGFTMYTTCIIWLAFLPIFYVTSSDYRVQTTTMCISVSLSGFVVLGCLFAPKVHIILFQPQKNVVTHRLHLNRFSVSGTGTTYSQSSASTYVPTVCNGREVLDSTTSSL

[2] = test system: KA, AMPA, and NMDA iGlu receptors; conditions: cited from earlier work
mGlu7 and mGlu8 = conditions: at higher concentrations (e.g., above 1 μM); cited from earlier work
mGluR2 = mGluR2 (Homo sapiens, UniProt Q14416); conditions: read-out: IC50 against mGluR2; cited from earlier work
Chain of mGluR2 (Q14416 19-872): as the sequence (Q14416 19-872) above

mGluR3 = mGluR3 (Homo sapiens, UniProt Q14832); conditions: read-out: IC50 against mGluR3; cited from earlier work
Chain of mGluR3 (Q14832 23-879): as the sequence (Q14832 23-879) above

[3] = test system: Group I or Group III receptors; conditions: at sub-mM concentrations; cited from earlier work
[4] = agent alone, FIG. 6-9, percentage of neuronal positive control, basal media values subtracted
[5] = agent alone, percentage of neuronal positive control, basal media values subtracted

CCCc1nc2c(C)cc(-c3nc4ccccc4n3C)cc2n1Cc1ccc(-c2ccccc2C(=O)O)cc1 [telmisartan, 2-[4-[[4-methyl-6-(1-methylbenzoimidazol-2-yl)-2-propyl-benzoimidazol-1-yl]methyl]phenyl]benzoic acid]
EC50 [1, 4]: ~0.03 µM
EC50 [1, 5]: 0.06 µM
effect on neuronal differentiation ([1]; agent alone): promoted neuronal differentiation

COc1ccc(C2CNC(=O)C2)cc1OC1CCCC1 (stereo not shown) [rolipram]
EC50 [1, 5]: 2.3 µM

N[C@@]1(C(=O)O)CO[C@H]2[C@H](C(=O)O)[C@H]21 [LY379268, (−)-2-oxa-4-aminobicyclohexane-4,6-dicarboxylic acid]
EC50 (human mGlu2 receptors): < 0.01 µM
EC50 (human mGlu3 receptors): < 0.01 µM

CC(C)C(=O)c1c(C(C)C)nn2ccccc12 [ibudilast]
EC50 [1, 5]: 6.2 µM

C[C@H](CS)C(=O)N1CCC[C@H]1C(=O)O [captopril, 1-[(2S)-3-mercapto-2-methylpropionyl]-1-proline]
EC50 [1, 5]: 3.8 µM
effect on neuronal differentiation ([1]; agent alone): promoted neuronal differentiation

N[C@](CC1c2ccccc2Oc2ccccc21)(C(=O)O)[C@H]1C[C@@H]1C(=O)O [LY341495, (2S)-2-amino-2-(1S,2S-2-carboxycycloprop-1-yl)-3-(xanth-9-yl)propanoic acid]
activity against KA, AMPA, and NMDA iGlu receptors [2]: substantially inactive
activity against mGlu7 and mGlu8 (mGlu7 and mGlu8): antagonist activity

NC1(C(=O)O)CCc2cc(P(=O)(O)O)ccc21 (racemic) [APICA, (RS)-1-amino-5-phosphonoindan-1-carboxylic acid]
IC50 (mGluR2): ~30 µM
IC50 (mGluR3): ~30 µM
activity against Group I or Group III receptors [3]: no appreciable activity

CSc1ccc(C(=O)c2[nH]c(=O)[nH]c2C)cc1 [enoximone]
EC50 [1, 5]: 6.8 µM

CC(=O)SC[C@@H](C)C(=O)N1CCC[C@H]1C(=O)N[C@@H](Cc1ccccc1)C(=O)O [alacepril, 1-(D-3-acetylthio-2-methylpropanoyl)-L-prolyl-L-phenylalanine]
EC50 [1, 5]: 13 µM
effect on neuronal differentiation ([1]; agent alone): promoted neuronal differentiation

CCCc1nc(C)c2c(=O)[nH]c(-c3cc(S(=O)(=O)N4CCN(CC)CC4)ccc3OCC)nn12 [vardenafil]
EC50 [1, 5]: 8.6 µM

COc1cc2c(cc1OC)C(=O)C(CC1CCN(Cc3ccccc3)CC1)C2 (stereo not shown) [donepezil]
EC50 [1]: 2 µM

CCCCc1nc(Cl)c(CO)n1Cc1ccc(-c2ccccc2-c2nnn[nH]2)cc1 [losartan, [2-butyl-5-chloro-3-[[4-[2-(2H-tetrazol-5-yl)phenyl]phenyl]methyl]-3H-imidazol-4-yl]methanol]
EC50 [1, 5]: 0.9 µM
effect on neuronal differentiation ([1]; agent alone): promoted neuronal differentiation

CCOc1nc2cccc(C(=O)O)c2n1Cc1ccc(-c2ccccc2-c2nnn[nH]2)cc1 [candesartan, 2-ethoxy-3-[[4-[2-(2H-tetrazol-5-yl)phenyl]phenyl]methyl]-3H-benzoimidazole-4-carboxylic acid]
EC50 [1, 4]: ~0.84 µM
EC50 [1, 5]: 2.2 µM
effect on neuronal differentiation ([1]; agent alone): promoted neuronal differentiation

CCOC(=O)[C@H](CCc1ccccc1)N[C@H]1CCc2ccccc2N(CC(=O)O)C1=O [benazepril, 2-[4-(1-ethoxycarbonyl-3-phenyl-propyl)amino-5-oxo-6-azabicyclo[5.4.0]undeca-7,9,11-trien-6-yl]acetic acid]
EC50 [1, 4]: 3.3 µM
effect on neuronal differentiation ([1]; agent alone): promoted neuronal differentiation

Cn1c(=O)c2[nH]cnc2n(C)c1=O [theophylline]
EC50 [1, 5]: 16.4 µM

NCCCC[C@H](N[C@@H](CCc1ccccc1)C(=O)O)C(=O)N1CCC[C@H]1C(=O)O [lisinopril, (S)-1-(N(sup 2)-(1-carboxy-3-phenylpropyl)-L-lysyl)-L-proline]
EC50 [1, 5]: 9.1 µM
effect on neuronal differentiation ([1]; agent alone): promoted neuronal differentiation

CCOC(=O)C(CCc1ccccc1)NC(C)C(=O)N1C(C(=O)O)CC2CCCCC21 (stereo not shown) [trandolapril, 1-[2-[(1-ethoxycarbonyl-3-phenyl-propyl)amino]propanoyl]-2,3,3a,4,5,6,7,7a-octahydroindole-2-carboxylic acid]
EC50 [1, 4]: ~35 µM
effect on neuronal differentiation ([1]; agent alone): promoted neuronal differentiation

NCC(CC(=O)O)c1ccc(Cl)cc1 (stereo not shown) [baclofen]
EC50 [1, 5]: 3.2 µM

CCOC(=O)[C@H](CCc1ccccc1)N[C@@H](C)C(=O)N1CCC[C@H]1C(=O)O [enalapril, (S)-1-[N-[1-(ethoxycarbonyl)-3-phenylpropyl]-1-alanyl]-1-proline]
EC50 [1, 5]: 0.5 µM
effect on neuronal differentiation ([1]; agent alone): promoted neuronal differentiation
